The values that follow come from patent US12358919B2, “Antibacterial compounds” (Universita' degli Studi di Siena, priority 2019, dated 2025).

Where two headings read alike, the source gives them in different places.

What all share (type): cell-based
Experiment [1] deals with Acinetobacter baumannii ATCC 17978. As to the kind of experiment: microbe, parasite or virus in culture. The conditions noted are these: for Potentiation fold: ratio MICcompound/MICcompound+polymyxin E; for MIC in presence of colistin: with 0.25xMIC polymyxin E1 (0.25 mg/L); for MIC: Acinetobacter baumannii, ATCC17978. The procedure:
(§1) Growth inhibition or killing of bacteria was investigated using conventional methods widely described in the scientific literature. Parameters such as the Minimum Inhibitory Concentration (MIC) were determined as described in Clinical Laboratory Standard Institute (CLSI) document M07 “Methods for Dilution Antimicrobial Susceptibility Tests for Bacteria That Grow Aerobically, 11th Edition” (2018). Synergistic activity of the compounds described in the present specification were determined by measuring the variation of the MIC's compound in the absence and presence of a sub-inhibitory concentration of a suitable antibacterial agent, such as polymyxin E1. Furthermore, the Fractional Inhibitory Concentrations (FICs) were measured using a chequerboard analysis to determine the average FIC index (FICI), whose value is known to characterize the interaction between two compounds and/or drugs (≤0.5, synergistic interaction; >0.5 and <2, no interaction, additive effect; ≥2, antagonistic interaction). Furthermore, the selectivity of the compounds was investigated by measuring their cytotoxic effect on mammalian cell lines (e.g. HeLa cells).
(§2) Several methods were used to investigate the synergistic activity of the compounds, including (a) the determination of the MIC in the presence of a sub-inhibitory concentration of a suitable antibacterial agent, (b) the determination of the average FICI using a chequerboard analysis and (c) the time-kill curve analysis of a suitable agent (at a sub-inhibitory concentration) in the absence and presence of the pyrazolo[4,3-b]pyridin-6-carboxamide compound at a fixed concentration of 2 or 8 mg/L.
(§3) The MIC of the compound was determined alone and in the presence of a fixed and sub-inhibitory concentration of a suitable antibacterial agent of the polymyxin class, such as polymyxin E1 (colistin). The potentiation fold was computed as the ratio MICcompound/MICcompound+polymyxin E. Tested organisms included Escherichia coli CCUG^TKlebsiella pneumoniae ATCC 13833 and Acinetobacter baumannii ATCC 17978, which show a colistin MIC of 0.5, 0.5 and 1 mg/L, respectively.

The test system of experiment [2] is Escherichia coli CCUG^T. As to the kind of experiment: microbe, parasite or virus in culture. The settings on record: for Potentiation fold: ratio MICcompound/MICcompound+polymyxin E; for MIC in presence of colistin: with 0.25xMIC polymyxin E1 (0.12 mg/L); for MIC: Escherichia coli. As for the experimental part:
as §1, §2, §3

The subject of experiment [3] is Klebsiella pneumoniae ATCC 13833. As to the kind of experiment: microbe, parasite or virus in culture. The settings on record: for Potentiation fold: ratio MICcompound/MICcompound+polymyxin E; for MIC in presence of colistin: with 0.25xMIC polymyxin E1 (0.12 mg/L); for MIC: Klebsiella pneumoniae, ATCC13833. The procedure:
as §1, §2, §3

Experiment [4] relates to Enterococcus faecalis ATCC 29212. As to the kind of experiment: MIC, broth microdilution (direct antibacterial activity). The settings on record: ATCC29212, E. faecalis ATCC 29212, compound alone, 18-24 h, read-out: MIC. As for the experimental part: as §1
(§4) The MIC values were determined using the broth microdilution method as described in document M07 using Mueller-Hinton broth as culture medium and an initial bacterial inoculum size of 5×10^5 CFU/mL, with a final volume of 100 μL per well in a 96-well microplate. Bacterial strains were Bacillus subtilis ATCC 6633, Enterococcus faecalis ATCC 29212, Streptococcus pyogenes ATCC 12344 and Staphylococcus aureus ATCC 25923. The tested compound concentration ranged from 512 to 0.25 mg/L. Plates were incubated for 18-24 hours at 35±2° C. prior to results analysis.

Experiment [5] relates to Staphylococcus aureus ATCC 25923. Described as above. The settings on record: ATCC25923, S. aureus ATCC 25923, compound alone, 18-24 h, read-out: MIC. The procedure:
as §1, §4

Experiment [6] has as its system Bacillus subtilis ATCC 6633. Described as above. The conditions noted are these: ATCC6633, B. subtilis ATCC 6633, compound alone, 18-24 h, read-out: MIC. The procedure:
as §1, §4

Experiment [7] deals with Streptococcus pyogenes ATCC 12344. The experiment is described as above. The settings on record: ATCC12344, S. pyogenes ATCC 12344, compound alone, 18-24 h, read-out: MIC. As for the experimental part:
as §1, §4

[8] abbreviates: A. baumannii ATCC 17978, compound alone, read-out: MIC.
[9] abbreviates: E. coli CCUG^T, compound alone, read-out: MIC.
Setting [10] is: K. pneumoniae ATCC 13833, compound alone, read-out: MIC.

Take `CC(C)n1c(=O)c(C(=O)NC(c2ccccc2)c2ccccc2)c(O)c2nn(C)cc21` [Iab, 4,5-Dihydro-N-(diphenylmethyl)-7-hydroxy-2-methyl-5-oxo-4-(2-propyl)-2H-pyrazolo[4,3-b]pyridin-6-carboxamide]: the Potentiation fold in experiment [1] (A. baumannii ATCC 17978), in experiment [2] (E. coli CCUG^T) and in experiment [3] (K. pneumoniae ATCC 13833) was ≥32 in each case. Further, the “MIC in presence of colistin” value in experiment [1] (A. baumannii ATCC 17978), in experiment [2] (E. coli CCUG^T) and in experiment [3] (K. pneumoniae ATCC 13833) was 16 µg/mL in each case. Also, the MIC in experiment [1] (setting [8]) was > 512 µg/mL; in experiment [2] (setting [9]) it was > 512 µg/mL; in experiment [3] (setting [10]), > 512 µg/mL; in experiment [4] it was 32 µg/mL; in experiment [5], 32 µg/mL; in experiment [6] it was 16 µg/mL. Further, the MIC in experiment [7] worked out at 32 µg/mL.

On to `CCCCCn1c(=O)c(C(=O)NC23CC4CC(CC(O)(C4)C2)C3)c(O)c2nn(CCO)cc21` [Io, 4,5-Dihydro-7-hydroxy-N-(1-hydroxyadamantan-3-yl)-2-(2-hydroxyethyl)-5-oxo-4-(1-pentyl)-2H-pyrazolo[4,3-b]pyridin-6-carboxamide], for which the Potentiation fold in experiment [1] (A. baumannii ATCC 17978) is recorded as ≥128; in experiment [3] (K. pneumoniae ATCC 13833) it was ≥64. Besides, the “MIC in presence of colistin” value stood at 4 µg/mL in experiment [1] (A. baumannii ATCC 17978) and 8 µg/mL in experiment [3] (K. pneumoniae ATCC 13833). In addition, the MIC in experiment [1], in experiment [2] and in experiment [3] was > 512 µg/mL throughout.

As for `CCCCn1c(=O)c(C(=O)NC2CCCC2)c(O)c2nn(C)cc21` [Iag, 4-(1-Butyl)-N-cyclopentyl-4,5-dihydro-7-hydroxy-2-methyl-5-oxo-2H-pyrazolo-[4,3-b]pyridin-6-carboxamide], the Potentiation fold is recorded as ≥4 in experiment [1] (A. baumannii ATCC 17978), ≥16 in experiment [2] (E. coli CCUG^T) and ≥8 in experiment [3] (K. pneumoniae ATCC 13833). The entries for the “MIC in presence of colistin” value in experiment [1] (A. baumannii ATCC 17978), in experiment [2] (E. coli CCUG^T) and in experiment [3] (K. pneumoniae ATCC 13833) were 128 µg/mL, 32 µg/mL and 64 µg/mL, respectively. Besides, the MIC in experiment [1] (setting [8]), in experiment [2] (setting [9]) and in experiment [3] (setting [10]) was > 512 µg/mL in each case.

With `CCCCn1c(=O)c(C(=O)NCc2ccc(F)cc2)c(O)c2nn(C)cc21` [Iac, 4-(1-Butyl)-4,5-dihydro-N-[(4-fluorophenyl)methyl]-7-hydroxy-2-methyl-5-oxo-2H-pyrazolo[4,3-b]pyridin-6-carboxamide], the MIC in experiment [4] came to 64 µg/mL; in experiment [5] it was 128 µg/mL; in experiment [6] it was 64 µg/mL; in experiment [7] it was 32 µg/mL.

Regarding `CCCCn1c(=O)c(C(=O)Nc2ccc(F)cc2)c(O)c2nn(C)cc21` [Iae, 4-(1-Butyl)-4,5-dihydro-N-(4-fluorophenyl)-7-hydroxy-2-methyl-5-oxo-2H-pyrazolo[4,3-b]pyridin-6-carboxamide], the results for the Potentiation fold in experiment [1] (A. baumannii ATCC 17978), in experiment [2] (E. coli CCUG^T) and in experiment [3] (K. pneumoniae ATCC 13833) were ≥16, ≥2 and ≥2, respectively. The “MIC in presence of colistin” value was 32 µg/mL in experiment [1] (A. baumannii ATCC 17978), 256 µg/mL in experiment [2] (E. coli CCUG^T) and 256 µg/mL in experiment [3] (K. pneumoniae ATCC 13833). Besides, the MIC is > 512 µg/mL in experiment [1] (setting [8]); > 512 µg/mL in experiment [2] (setting [9]); > 512 µg/mL in experiment [3] (setting [10]); 32 µg/mL in experiment [4]; 128 µg/mL in experiment [5]; 128 µg/mL in experiment [6]. Further, the MIC in experiment [7] came out at 32 µg/mL.

For the molecule `CC(C)n1c(=O)c(C(=O)NC2CCCc3ccccc32)c(O)c2nn(C)cc21` (centres unmarked) [Iaa, 4,5-Dihydro-7-hydroxy-2-methyl-5-oxo-4-(2-propyl)-N-(1,2,3,4-tetrahydro-1-naphthyl)-2H-pyrazolo[4,3-b]pyridin-6-carboxamide], the Potentiation fold in experiment [1] (A. baumannii ATCC 17978) is on record as ≥32; in experiment [2] (E. coli CCUG^T), ≥32; in experiment [3] (K. pneumoniae ATCC 13833) it was ≥16. The “MIC in presence of colistin” value in experiment [1] (A. baumannii ATCC 17978) was determined as 16 µg/mL; in experiment [2] (E. coli CCUG^T) it was 16 µg/mL; in experiment [3] (K. pneumoniae ATCC 13833), 32 µg/mL. For the same molecule, the MIC was > 512 µg/mL in experiment [1] (setting [8]); > 512 µg/mL in experiment [2] (setting [9]); > 512 µg/mL in experiment [3] (setting [10]); 64 µg/mL in experiment [4]; 64 µg/mL in experiment [5]; 16 µg/mL in experiment [6]. For the same molecule, the MIC in experiment [7] is 32 µg/mL.

As to `CCCCn1c(=O)c(C(=O)NC(c2ccccc2)c2ccccc2)c(O)c2nn(C)cc21` [Iu, 4-(1-Butyl)-4,5-dihydro-N-(diphenylmethyl)-7-hydroxy-2-methyl-5-oxo-2H-pyrazolo[4,3-b]pyridin-6-carboxamide], the figures for the Potentiation fold in experiment [1] (A. baumannii ATCC 17978), in experiment [2] (E. coli CCUG^T) and in experiment [3] (K. pneumoniae ATCC 13833) were ≥16, ≥8 and ≥8, respectively. The figures for the “MIC in presence of colistin” value in experiment [1] (A. baumannii ATCC 17978), in experiment [2] (E. coli CCUG^T) and in experiment [3] (K. pneumoniae ATCC 13833) were 32 µg/mL, 64 µg/mL and 64 µg/mL, respectively. Moreover, the MIC in experiment [1] (setting [8]), in experiment [2] (setting [9]) and in experiment [3] (setting [10]) was > 512 µg/mL in each case.

As for `CCCn1c(=O)c(C(=O)NC23CC4CC(CC(C4)C2)C3)c(O)c2nn(CCOC(C)=O)cc21` [Ir, 2-(2-Acetoxyethyl)-N-(adamantan-1-yl)-4,5-dihydro-7-hydroxy-5-oxo-4-(1-propyl)-2H-pyrazolo[4,3-b]pyridin-6-carboxamide], the Potentiation fold in experiment [1] (A. baumannii ATCC 17978) is recorded as ≥16; in experiment [2] (E. coli CCUG^T) it was ≥8; in experiment [3] (K. pneumoniae ATCC 13833), ≥8. Further, the “MIC in presence of colistin” value is 32 µg/mL in experiment [1] (A. baumannii ATCC 17978), 64 µg/mL in experiment [2] (E. coli CCUG^T) and 64 µg/mL in experiment [3] (K. pneumoniae ATCC 13833). In addition, the MIC in experiment [1], in experiment [2] and in experiment [3] was > 512 µg/mL throughout.

Consider `CCCCn1c(=O)c(C(=O)NC23CC4CC(CC(O)(C4)C2)C3)c(O)c2nn(C)cc21` [Ia, 4-(1-Butyl)-4,5-dihydro-7-hydroxy-N-(1-hydroxyadamantan-3-yl)-2-methyl-5-oxo-2H-pyrazolo[4,3-b]pyridin-6-carboxamide], for which the Potentiation fold in experiment [1] (A. baumannii ATCC 17978) is ≥16; in experiment [2] (E. coli CCUG^T), ≥16; in experiment [3] (K. pneumoniae ATCC 13833), ≥8. In addition, the “MIC in presence of colistin” value in experiment [1] (A. baumannii ATCC 17978) was found to be 32 µg/mL; in experiment [2] (E. coli CCUG^T), 32 µg/mL; in experiment [3] (K. pneumoniae ATCC 13833), 64 µg/mL. The MIC in experiment [1], in experiment [2] and in experiment [3] was > 512 µg/mL in each case.

In the case of `CCCCn1c(=O)c(C(=O)NC(C)(C)C)c(O)c2nn(CC)cc21` [Iw, 4-(1-Butyl)-4,5-dihydro-N-(1,1-dimethylethyl)-2-ethyl-7-hydroxy-5-oxo-2H-pyrazolo[4,3-b]pyridin-6-carboxamide], the Potentiation fold is ≥8 in experiment [1] (A. baumannii ATCC 17978), ≥32 in experiment [2] (E. coli CCUG^T) and ≥16 in experiment [3] (K. pneumoniae ATCC 13833). Also, the entries for the “MIC in presence of colistin” value in experiment [1] (A. baumannii ATCC 17978), in experiment [2] (E. coli CCUG^T) and in experiment [3] (K. pneumoniae ATCC 13833) were 64 µg/mL, 16 µg/mL and 32 µg/mL, respectively. Moreover, the MIC in experiment [1] (setting [8]), in experiment [2] (setting [9]) and in experiment [3] (setting [10]) was > 512 µg/mL in each case.
